Read-outs that look alike come from different tables or passages of the source.
How the values were obtained:
[1] = system: SW480 cancer cells; experiment: Cellular accumulation (ICP-MS) in SW480 cells; conditions: 50 μM, 0.5% DMF in MEM, SW480, exposure time 2 h
Description: (§1) As the coordinated p-cym and leaving groups are present in all synthesized complexes, we focused on the differently substituted 4-phenylthiazoles for estimated changes in lipophilicity.
Cellular accumulation of the compounds was studied based on a method described previously with modifications. 1.8 × 10^5 SW480 cells per well were seeded in aliquots of 1 mL of complete MEM (see above) into 12-well plates (CytoOne, tissue culture treated, Starlab) and incubated at 37°C for 24 h. Then, cells were exposed for 2 h at 37°C to 50 μM solutions of the test compounds (containing 0.5% DMF) in fresh 0.5 mL of complete MEM upon exchange of the medium. Afterward, cells were washed three times with 1 mL PBS per well, lysed with 0.4 mL sub-boiled HNO3 per well for 1 h at room temperature, and 0.3 mL of each sample was diluted with 7.7 mL Milli-Q water. Adsorption/desorption controls were prepared in the same manner in cell-free wells. Ruthenium content was quantified by ICP-MS using an ICP-quadrupole MS Agilent 7800 instrument (Agilent Technologies, Waldbronn, Germany) as described previously.

[2] = Solubility in 1% DMF/PBS
From the text: Solubility is an important factor for the application of metallodrugs. DMF was used as solubilizer to allow comparison to the respective chlorido complexes where the usage of DMSO would lead to stable DMSO adducts.
as §1

[3] = system: A549 lung adenocarcinoma cells; experiment: MTT assay, inhibition of cancer cell growth, A549; conditions: read-out: 50% inhibitory concentration A549, exposure time 96 h
Description: (§2) CH1/PA-1 ovarian teratocarcinoma cells (CH1, RRID: CVCL_4992, provided by L. R. Kelland, CRC Center for Cancer Therapeutics, Institute of Cancer Research, Sutton, UK; confirmed by STR profiling as PA-1 ovarian teratocarcinoma cells at Multiplexion, Heidelberg, Germany), SW480 colon adenocarcinoma (RRID: CVCL_0546), and A549 lung adenocarcinoma cells (NCI-H2618, RRID: CVCL_A549; both cell lines were obtained from the American Type Culture Collection (ATCC), Manassas, VA, USA) were grown as adherent cultures in 75-cm^2 culture flasks (Starlab, Hamburg, Germany) by using minimal essential medium (MEM) supplemented with 1 mM sodium pyruvate, 4 mM L-glutamine, 1% (v/v) nonessential amino acids from 100-fold stock (all purchased from Sigma-Aldrich), and 10% heat-inactivated fetal bovine serum (Serana, Pessin, Germany).
(§3) The 3-(4,5-dimethylthiazol-2-yl)-2,5-diphenyl-2H tetrazolium bromide (MTT, Acros Organics, Geel, Belgium) assay was used to detect the cytotoxicity of the compounds after 96-h incubation. For this purpose, cells were harvested from culture flasks by trypsinization, seeded in 100-μL aliquots into 96-well microculture plates (Starlab, UK) in densities of 1 × 10^3 (CH1/PA-1), 2 × 10^3 (SW480), and 3 × 10^3 (A549) cells per well and incubated for 24 h prior to exposure to the test compounds. Stock solutions of test compounds were prepared in DMF, which were then diluted in MEM (not to exceed a final content of 0.5% v/v of organic solvent in the test plates), and serial dilutions were added in aliquots of 100 μL per well. […] After incubation for 4 h, the medium/MTT mixtures were removed, and the produced formazan crystals were dissolved in 150 μL DMSO per well. Optical densities at 550 nm were measured spectrophotometrically with a ELx808 Absorbance Microplate Reader (Bio-Tek, Winooski, VT, USA) by using a reference wavelength of 690 nm to correct for unspecific absorption.

[4] = system: SW480 colon adenocarcinoma cells; experiment: MTT assay, inhibition of cancer cell growth, SW480; conditions: read-out: 50% inhibitory concentration SW480, exposure time 96 h
Description: as §2, §3

[5] = system: CH1/PA-1 ovarian teratocarcinoma cells; experiment: MTT assay, inhibition of cancer cell growth, CH1/PA-1; conditions: read-out: 50% inhibitory concentration CH1, exposure time 96 h
Description: as §2, §3

[6] = system: SW480 cells; experiment: DCFH-DA assay, cellular ROS levels; format: cell-based, human; conditions: 2 h, concentration dependent
Description: For this approach, SW480 cells were subjected to the 2′,7′-dichlorofluorescin-diacetate (DCFH-DA) assay.
SW480 colon adenocarcinoma cells were trypsinized for 5 min in a humidified incubator at 37°C and under a 5% CO2 atmosphere. Supplemented MEM was added to stop trypsinization, and cells were centrifuged for 3 min at 1200 rpm (Heraeus Megafuge 1.0R). After cell counting, SW480 cells were seeded in 100-μL aliquots in densities of 2.5 × 10^4 cells/well into 96-well clear flat-bottom microplates (CytoOne, TC-treated, from Starlab). After incubation for 24 h, cells were washed with 200 μL of Hanks' balanced salt solution (HBSS; Sigma-Aldrich; supplemented with 1% heat-inactivated FCS). […] After washing cells with 200 μL of supplemented HBSS, serially diluted test compounds in phenol-red-free Opti-MEM (Gibco), supplemented with 1% heat-inactivated FCS, were added in 200-μl triplicates and tert-butyl hydroperoxide (TBHP) was applied as positive control. […] Blank-corrected values were calculated relative to negative controls (treated with drug-free supplemented Opti-MEM) from three independent experiments.

[7] = system: G4 forming sequences (h-Telo, bcl2, hTERT, Kit1, Kit2) and dsDNA; experiment: FRET melting assay, G-quadruplex / B-DNA interaction; format: binding, human; conditions: 60 mM potassium cacodylate pH 7.4, 2 h incubation
Description: G4s are DNA secondary motifs that play crucial roles in cancer development. […] The complexes were incubated with different G4 forming sequences: one derived from human telomere-forming (h-Telo) and four corresponding to promoter regions of oncogenes, namely, bcl2, hTERT, Kit1, and Kit2. For comparison, a self-complementary sequence called dsDNA was used to represent B-DNA (Table S2).
FRET experiments were conducted using an Applied Biosystems QuantStudio 6 PCR cycler in a 96-well format equipped with a FAM (6-carboxyfluorescein) filter. Oligonucleotide stock solutions, labelled with FAM and TAMRA (6-carboxytetramethylrhodamine) probes, were diluted to the desired concentration in a 60-mM potassium cacodylate buffer (pH 7.4). To fold the oligonucleotides into their B-DNA or G4 topologies, the solutions were heated to 95°C for 5 min and then allowed to cool slowly to room temperature overnight. The final concentration of the oligonucleotides was 0.2 μM, with a total volume of 30 μL in each well. Metal complexes were dissolved in DMF to prepare 2 mM stock solutions and further diluted with the buffer, where DMF concentration never exceeded 0.05%. Mixtures of oligonucleotides and metal compounds were left at room temperature for 2 h. Data were collected twice, each time in duplicate, over a temperature range of 25°C–95°C, with a ramp of 1°C every 30 s. FAM emission data were normalized from 0 to 1 to compare different datasets. After data normalization, we extrapolated the T1/2 values, i.e., the temperature at which normalized FAM emission is 0.5. The DNA concentration is expressed in strands.

[8] = system: Balb/c mice; experiment: Toxicity experiments in Balb/c mice (MTD); conditions: for Toxicity in mice: i.p. 50 mg/kg, three consecutive days, 10% DMSO in 0.9% NaCl; for MTD fold lower compared to 1c and 3c: mice
Description: Finally, we were interested in the anticancer activity of selected complexes of our panel in an in vivo mouse setting. Before injecting the compounds in tumor-bearing mice, toxicity experiments were performed. […] On the last day of therapy, most animals were sacrificed and tissues as well as tumors collected. Only four mice (per group) were kept to get information on the impact of the drugs on the overall survival.

[9] = system: HCT116 colorectal cancer cell line (2D); experiment: Resazurin assay, HCT116 2D (monolayer) culture; conditions: read-out: IC50 2D, resazurin assay, 96 h exposure
Description: (§4) Both models were investigated by the fluorimetric resazurin assay after 96-h exposure.
(§5) HCT116 colorectal carcinoma cells (RRID:CVCL_0291 from ATCC) were cultivated in McCoy's 5A medium, supplemented with 10% heat-inactivated fetal bovine serum and 4 mM L-glutamine.
(§6) For 2D experiments, HCT116 cells were harvested from culture flasks by trypsinization, seeded in 100-μL aliquots into 96-well microculture plates (CytoOne, TC-treated, from Starlab) in densities of 2 × 10^3 cells per well, and incubated for 24 h prior to exposure to the test compounds. […] Stock solutions of test compounds were prepared in DMF, which were then diluted in McCoy's 5A-supplemented medium (not to exceed a final content of 0.5% v/v of organic solvent in the test plates), and serial dilutions were added in aliquots of 100 μL per well. […] After incubation for 4 h, fluorescence was measured with a microplate reader (Bio-Tek, SynergyHT) at a wavelength of 530 nm, additionally using a reference wavelength of 620 nm.

[10] = system: HCT116 multicellular tumor spheroids (3D); experiment: Resazurin assay, HCT116 3D multicellular tumor spheroids; conditions: read-out: IC50 3D; HCT116 3D spheroids, resazurin assay, 96 h exposure
Description: as §4, §5, §6

[11] = Stability and reactivity in aqueous solution (1H-NMR, UV-vis)
Description: The exact concentration of the metal complex stock solutions was calculated on weight-in-volume basis. Complexes were dissolved in water in 1–5 mM concentration.
The path length was 1 cm.
^1H-NMR spectroscopic studies were carried out on a Bruker FT-NMR spectrometer AV NEO 500.10 MHz and a Bruker Avance III HD Ascend 500 Plus instrument. All ^1H-NMR spectra were recorded using a standard Bruker noesygppr1d pulse sequence to suppress water resonance. […] Samples contained 10% (v/v) D2O with a complex concentration of ca. 1 mM. Samples were prepared in pH 1.3 aqueous HCl solution or in pH 7.4 PBS.

[12] = system: A549 lung adenocarcinoma cells; set-up: method as in PMID 38426897; conditions: MTT assay, exposure time 96 h; ref [5]; read-out: 50% inhibitory concentration A549 (chlorido complexes, reference) (converted); cited from earlier work
[13] = system: SW480 colon adenocarcinoma cells; set-up: method as in PMID 38426897; conditions: MTT assay, exposure time 96 h; ref [5]; read-out: 50% inhibitory concentration SW480 (chlorido complexes, reference) (converted); cited from earlier work
[14] = system: CH1/PA-1 ovarian teratocarcinoma cells; set-up: method as in PMID 38426897; conditions: MTT assay, exposure time 96 h; ref [5]; read-out: 50% inhibitory concentration CH1 (chlorido complexes, reference) (converted); cited from earlier work
[15] = system: G4 forming sequences (h-Telo, bcl2, hTERT, Kit1, Kit2) and dsDNA; set-up: method as in PMID 38426897; conditions: recent work; ref [5]; cited from earlier work

Compound | Cellular accumulation, fg Ru/cell [1] | Solubility [2] | IC50 [3] | IC50 [4] | IC50 [5] | Effect on intracellular ROS levels [6] | Stabilization of oligonucleotides (G4s or B-DNA) [7] | Toxicity in mice ([8]; Balb/c mice) | MTD fold lower compared to 1c and 3c [8] | IC50 [9] | IC50 [10] | Sensitivity to chloride: replacement of coordinated MeIm ([11]; 3 M KCl, pH 7.4, UV-vis) | Decomposition at pH 7.4 ([11]; PBS pH 7.4, 1 mM complex, 25°C, within 6 days, 1H-NMR) | Behaviour in acidic solution ([11]; pH = 1.0 or 1.3 (HCl), followed in time up to 6 days, 1H-NMR/UV-vis) | Spectral change at pH 10.0 ([11]; pH = 10.0 (NaOH), within 2 days, UV-vis) | Maximal tolerable dose (MTD) for repeated applications ([8]; Balb/c mice, i.p.) | IC50 [12] | IC50 [13] | IC50 [14] | Stabilization of DNA G-quadruplex structures [15]
Cc1ccc(C(C)C)cc1.Cn1cc[n+]([Ru-]2[c]3cc(F)ccc3-c3csc[n+]32)c1.O=[N+]([O-])[O-] [Compound 3b, [((3-κN)-1-Methylimidazole)(4-(4-fluorophenyl)thiazolato-κN,κC2′)(η^6-p-cymene)ruthenium(II)] Nitrate] | 470 ± 71 fg Ru/cell | 8.82 mM | 20 ± 3 µM | 7.9 ± 1.5 µM | 2.8 ± 0.2 µM |  |  |  |  |  |  |  |  |  |  |  |  |  |  | 
Cc1ccc(C(C)C)cc1.Cn1cc[n+]([Ru-]2[c]3ccccc3-c3csc[n+]32)c1.O=[N+]([O-])[O-] [Compound 3a, [((3-κN)-1-Methylimidazole)(4-phenylthiazolato-κN,κC2′)(η^6-p-cymene)ruthenium(II)] Nitrate] | 387 ± 16 fg Ru/cell | 9.08 mM | 11 ± 1 µM | 5.4 ± 1.1 µM | 1.9 ± 0.1 µM | constantly decrease ROS levels with increasing concentrations | No stabilization | highly toxic | 10 fold | 8.4 ± 0.7 µM | 10.6 ± 0.9 µM | could not replace coordinated MeIm | no decomposition | decomposition | no spectral change |  |  |  |  | 
COc1ccc2[c](c1)[Ru-]([n+]1ccn(C)c1)[n+]1cscc1-2.Cc1ccc(C(C)C)cc1.O=[N+]([O-])[O-] [Compound 3e, [((3-κN)-1-Methylimidazole)(4-(4-methoxyphenyl)thiazolato-κN,κC2′)(η^6-p-cymene)ruthenium(II)] Nitrate] | 246 ± 47 fg Ru/cell | 15.6 mM | 14 ± 1 µM | 5.5 ± 2.2 µM | 1.8 ± 0.3 µM |  |  |  |  |  |  |  |  |  |  |  |  |  |  | 
Cc1ccc(C(C)C)cc1.[Cl][Ru][c]1ccccc1-c1cscn1 [Compound 1a] |  |  |  |  |  | constantly decrease ROS levels with increasing concentrations |  | highly toxic | 10 fold | 18 ± 5 µM | 31 ± 5 µM |  |  |  |  | 5 mg/kg | 24 µM | 9.5 µM | 3 µM | stabilize DNA G-quadruplex (G4) structures
Cc1ccc(-c2cscn2)[c]([Ru][Cl])c1.Cc1ccc(C(C)C)cc1 [Compound 1d] |  |  |  |  |  |  |  |  |  |  |  |  |  |  |  |  | 34 µM | 19 µM | 14 µM | stabilize DNA G-quadruplex (G4) structures
Cc1ccc(C(C)C)cc1.Cc1ccc2[c](c1)[Ru-]([n+]1ccn(C)c1)[n+]1cscc1-2.O=[N+]([O-])[O-] [Compound 3d, [((3-κN)-1-Methylimidazole)(4-(4-methylphenyl)thiazolato-κN,κC2′)(η^6-p-cymene)ruthenium(II)] Nitrate] | 477 ± 47 fg Ru/cell | 8.92 mM | 7.2 ± 1 µM | 3.8 ± 0.3 µM | 1.61 ± 0.04 µM |  | No stabilization |  |  |  |  |  |  |  |  |  |  |  |  | 

From paper PMC12463534, “Exploring the Anticancer Properties of 4-Phenylthiazole-Based Ru(II) and Os(II) Metallacycles Featuring 1-Methylimidazole as N-Donor Functionality” (Bioinorganic Chemistry and Applications, 2025)
